Measured values published in PubChem BioAssay AID179 (DTP/NCI, 2004).
pEC50, pIC50: −log10 of the molar value. Several values for one entry are separate records, joined by “and”; a condition that tells them apart may be missing. Identical values can stand only once. Activity calls are given as the source filed them.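 How the source made its calls: active means compounds giving half or more protection of infected cells from virus-caused growth loss, again on retest; inactive means the rest.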

System: CEM cells HIV-1 protection, formazan growth assay
Assay: NCI AIDS Antiviral Assay
Conditions: for pIC50: measured here: growth of uninfected CEM cells
Summary of the method: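 Category rules: moderately active means at least 50% protection on retest, and confirmed active means 100% protection reproducibly. The underlying data came from a formazan growth assay in HIV-1-infected CEM cells.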

SMILES | pEC50 | pIC50 | outcome
CCCCCCCCCCCCNC(=O)c1ccccc1[Se][Se]c1ccccc1C(=O)NCCCCCCCCCCCC | < 5.45 | < 5.45 | –
N#Cc1cscc1C#N | < 3.70 | < 3.70 | –
Cc1nc2ccc(N=NN(C)C)cc2[nH]1 | < 3.70 | < 3.70 | –
CN(C)c1ccc(/C=C(/NC(=O)c2ccccc2)c2nc3ccc(Cl)cc3[nH]2)cc1 | < 4.76 | < 4.76 | –
Cc1c(O)cc2c(c1O)C(=O)CC(c1ccc(O)cc1)O2 (centres undefined) | < 3.70 | 4.03 | –
Cn1c2ccccc2n2c3ncccc3c(=NCCCC(=O)O)c(C#N)c12 | < 3.70 | < 3.70 | –
CN1CCN(CCCN2c3ccccc3Sc3ccc(C(F)(F)F)cc32)CC1 | < 3.70 | 5.02 and 5.36 | –
O=C(Cc1c(C(=O)Nc2ccccc2)sc(C(=O)Nc2ccccc2)c1CC(=O)Nc1ccccc1)Nc1ccccc1 | – | – | inactive
Cc1cc(S(=O)(=O)NC(=NCC(=O)NN)NN)c(S)cc1Cl | < 3.70 | 4.46 | –
CN(C)CCCNC(=O)c1c(O)c2ccccc2[nH]c1=O | < 3.70 | < 3.70 | –
COC1=NC(NC2OCC(O)C(O)C2O)=C(NC(C)=O)CN1C (centres undefined) | < 3.70 | < 3.70 | –
O=C(CCC(=O)C1Cc2ccccc2C1=O)Nc1cccc(C(F)(F)F)c1 (centres undefined) | < 3.18 | < 3.18 | –
NC(=S)C(=S)N/C=C(/c1ccc(Cl)cc1)S(=O)(=O)Cc1ccc(Cl)cc1 | – | – | inactive
CCOC(=O)C(=Cc1ccc(Br)cc1)C(=O)OCC | < 4.24 | 4.93 | –
COc1cc2c(cc1OC)C(CCc1ccc(Cl)cc1)N(C)CC2 (centres undefined) | < 3.70 | 4.04 | –
C[N+](C)(C)CC(=O)N/N=C(\C(=O)NC1=C(Cl)C(=O)c2ccccc2C1=O)C(C#N)c1nc(-c2ccc([N+](=O)[O-])cc2)cs1 (centres undefined) | – | – | inactive
CC(=O)O[C@H]1CCC2[C@@H]3CCC4Nc5[nH]ncc5C[C@]4(C)C3CC[C@@]21C (some centres undefined) | – | – | inactive
C#C[C@@]1(O)CCCC2=CC3(CC[C@]21C)SCCS3 | < 3.70 | 4.05 | –
c1ccc2nc3c(cc2c1)[nH]c1ccccc13 | < 3.47 | 3.69 | –
O=C(N/N=C1\C(=O)N(c2nccs2)C(=O)C(=O)C1c1nc2ccccc2s1)c1ccccc1O (centres undefined) | – | – | inactive
NC(N)=N/N=C/c1c(Cl)nc2n1CCS2 | < 3.70 | 3.99 | –
CC(=Nc1ccc([N+](=O)[O-])cc1)c1ccc(O)cc1 | < 3.70 | 4.97 | –

SMILES | pEC50 | pIC50 | outcome
O=C(NCCS(=O)(=O)N1C(=O)C2CCCN2C(=O)[C@@H]1Cc1ccccc1)OCc1ccccc1 (some centres undefined) | < 4.00 | 4.27 | –
CN(C)C(=O)NC(=S)N(C)C | – | – | inactive
O=C1OC(OCC#CCOC2OC(=O)C(Cl)=C2Cl)C(Cl)=C1Cl (centres undefined) | < 3.70 | 5.77 | –
Cc1nn(C(=O)c2ccc(Cl)cc2)c2c1C(c1ccccc1)SC(N)=N2 (centres undefined) | – | – | inactive
Br/C=C(\Br)C[N+]12CN3CN(CN(C3)C1)C2 | < 3.70 | 3.96 | –
CN(c1ccc(/C=C/c2ccccc2)cc1)P1(=O)NCCCO1 (centres undefined) | < 4.38 | 4.55 | –
CC12C(=O)NC(c3ccncc3)(c3ccccc31)C1C(=O)N(c3ccccc3)C(=O)C12 (centres undefined) | < 3.70 | 3.72 | –
CC(CN(C)C)Nc1c2ccccc2nc2cccc([N+](=O)[O-])c12 (centres undefined) | < 5.70 | 6.01 | –
C(=C\c1cnc2ccccc2n1)/c1ccc2c(c1)OCO2 | < 3.70 | < 3.70 | –
CN(CCO)CC(=O)CC(O)(C(F)(F)F)C(F)(F)F | < 3.70 | 4.40 | –
O=C(O)CCN1c2ccccc2Sc2ccccc21 | < 3.32 | 3.77 | –
COC(=O)[C@H](Cc1ccccc1)NC(=O)N(CCNC(=O)OC(C)(C)C)c1ccccc1 | < 3.70 | 3.99 | –
CCCOC(=O)c1cc(C(=CCC[C@H]2CC[C@@]3(C)[C@@H](CC[C@@H]4[C@@H]3CC[C@]3(C)[C@@H](C(C)CCCC(C)C)CC[C@@H]43)C2)c2cc(Cl)c(O)c(C(=O)OCCC)c2)cc(Cl)c1O (some centres undefined) | < 3.82 | < 3.82 | –
Cc1cc2c(cc1Cl)SC(C(=O)c1cccc([N+](=O)[O-])c1)=NS2(=O)=O | 3.92 | < 3.70 | –
CSc1nc(=O)c2nc(-c3cccs3)c(-c3cccs3)nc2n1C | < 4.00 | < 4.00 | –
COc1ccc(OC)c(NC(=O)CCC/C(CC(=O)c2ccc(O)c(OC)c2)=N\NC(=O)C[N+](C)(C)C)c1 | < 5.18 | < 5.18 | –
CN(C)Cc1cc(N=Nc2ccc(Cl)cc2)ccc1OC(=O)c1ccccc1 | < 3.70 | 4.84 | –
COc1c(Cl)cc(C(=CCCCCN[C@H]2CC[C@@]3(C)[C@@H](CC[C@@H]4[C@@H]3CC[C@]3(C)[C@@H](C(C)CCCC(C)C)CC[C@@H]43)C2)c2cc(Cl)c(OC)c(C(=O)O)c2)cc1C(=O)O (some centres undefined) | < 3.70 | < 3.70 | –
COc1ccc(N2C(=O)C3c4[nH]c5ccccc5c4C4C(C)CCCC4C3C2=O)cc1 (centres undefined) | < 3.70 | 5.09 | –
CN(C)c1nc(=Nc2ccc3ccccc3c2)ss1 | – | – | inactive
Cc1sc2c(c1C)C(=O)c1cccn1-2 | < 3.70 | 3.77 | –
O=[N+]([O-])c1cccc(-c2ncnc(-c3cccc([N+](=O)[O-])c3)n2)c1 | < 4.00 | < 4.00 | –

SMILES | pEC50 | pIC50 | outcome
COc1ccc2c(c1)[nH]c1c(C)c3ccncc3c(C)c12 | < 3.70 | 6.95 | –
COCC1OC2(CCC[C@H]2O)O[C@H]1COC (some centres undefined) | – | – | inactive
Cc1nc(NC(=S)NC(=O)c2ccc(Cl)c(Cl)c2)sc1C(=O)/C=C/c1ccccc1[N+](=O)[O-] | < 4.72 | < 4.72 | –
NCC1OC(OC2C(CO)OC(OC3C(O)C(N)CC(N)C3OC3OC(CO)C(O)CC3N)C2O)C(N)C(O)C1OC1OC(CO)C(O)C(O)C1O (centres undefined) | – | – | inactive
CCO/N=C\c1c2c(O)c3c(O)c(C)c4c(c3c1O)C(=O)C(C)(O/C=C\C(OC)C(C)C(OC(C)=O)C(C)C(O)C(C)C(O)C(C)/C=C\C=C(\C)C(=O)N2)O4 (centres undefined) | < 3.82 | 5.09 | –
Cc1n[nH]c2ccc([N+](=O)[O-])cc2c1=O | < 4.24 | < 4.24 | –
COc1c(-c2ccc3c(c2)OCO3)oc2cc(O)cc(O)c2c1=O | < 3.70 | 3.94 | –
OCCNCNc1nc(NCNCCO)nc(N(CNCCO)CNCCO)n1 | < 3.70 | 4.57 | –
COc1cc(-c2[o+]c3cc(O)cc(OC4OC(CO)C(O)C(O)C4O)c3cc2OC2OC(CO)C(O)C(O)C2O)cc(OC)c1O (centres undefined) | < 4.17 | 4.39 | –
Oc1ccc2ccccc2c1C1=NNC(c2ccc(Cl)cc2)C1 (centres undefined) | < 3.70 | 4.39 | –
O=C(c1ccc(Cl)cc1)N(C(=S)N1CCN(c2ccccn2)CC1)c1ccccc1 | < 4.51 | < 4.51 | –
CCCCCC=C(c1ccc(OC)c(C(=O)OC)c1)c1ccc(OC)c(C(=O)OC)c1 | < 3.70 | 4.56 | –
O=C1C=CC(=O)c2c1ccc1c3ccccc3n(Cc3ccccc3)c21 | < 3.70 | 5.49 | –
O=C(CCC(=O)Nc1ccc(Cl)c(Cl)c1)CC(=O)c1ccc(Br)cc1 | < 3.55 | < 3.55 | –
C#CCOCn1cnc2c(=S)nc[nH]c21 | < 5.04 | < 5.04 | –
CCOC(=O)C[C@]1(O)[C@@H](CO[Si](C)(C)C(C)(C)C)O[C@@H](n2ccc(=O)[nH]c2=O)[C@@H]1O[Si](C)(C)C(C)(C)C | < 3.70 | 4.97 | –
O=c1[nH]cnc(O)c1N=Nc1ccc(/C=C/c2ccc(N=Nc3c(O)nc[nH]c3=O)cc2S(=O)(=O)O)c(S(=O)(=O)O)c1 | < 4.20 | < 4.20 | –
Nc1ccc(C(=O)N/C(=C\c2ccc3c(c2)OCO3)c2nc3ccccc3s2)cc1 | – | – | inactive
Cn1c2c(c(=O)[nH]c1=O)OCN(Cc1ccccc1)C2 | < 3.60 | 4.53 | –
COc1ccc2nc3n(c2c1)C(c1c(F)cccc1Cl)SC3 (centres undefined) | < 3.70 | < 3.70 | –
COc1cc2ccc1OCc1cccc(n1)COc1ccc(cc1OC)C=NCCNCCN=C2 | 3.88 | < 3.70 | –
COc1ccc(Cl)cc1NC(=O)Nc1cc(C)ccn1 | < 3.70 | < 3.70 | –

SMILES | pEC50 | pIC50 | outcome
O=[N+]([O-])/C=C/c1cc2ccccc2[nH]1 | < 3.70 | 5.20 | –
CC(C)(CO)CNc1cc(Cl)nc(N)n1 | < 3.70 | < 3.70 | –
COC(=O)c1cc2c(c3c1CC(Cc1ccccc1)C3=O)CCC2 (centres undefined) | < 3.70 | 4.48 | –
CNc1nc(N(C)C)nc(N(C)C)n1 | < 3.27 | 3.39 | –
CC(Cc1ccc2c(c1)OCO2)N(C)C(=O)C1=CCN(C)CC1 (centres undefined) | < 3.70 | < 3.70 | –
COC(=O)[C@@H]1CCCN1CCN1CCC[C@H]1C(=O)OC | < 3.70 | < 3.70 | –
COC(=O)/C=C\C(C#N)(C#N)N=Cc1ccsc1 | < 5.70 | 6.12 | –
Cc1c(C)c2c(c(N)c1C#N)C(=O)N(CCN1CCNCC1)C2=O | < 3.70 | 4.69 | –
CC(=O)c1c2c(cc3c1CC1(C3)Cc3cc4c(c(C(=O)O)c3C1)CCCC4)CCCC2 (centres undefined) (tested in a mixture with another compound) | < 3.70 | 4.41 | –
O=C1CCCCC1C1(O)C(=O)Nc2cc(F)ccc21 (centres undefined) | < 3.02 | 3.75 | –
Cc1nc(C(N)=S)sc1C(=O)/C=C/c1c(O)ccc2ccccc12 | < 4.27 | 4.37 | –
CC(/C=C/c1ncccc1OCCCCCC(=O)O)=N\NC1=NCCN1 | < 4.16 | < 4.16 | –
CSc1ncc2c(C#N)c3n(C)c4ccccc4n3c(=O)c2n1 | < 4.00 | < 4.00 | –
CN(C(=O)Cc1ccccc1)n1cnn(CC(=O)OC(C)(C)C)c1=S | < 3.70 | < 3.70 | –
Cc1ccc(Cc2n[nH]c(=O)n2Nc2ccccc2)cc1 | < 3.70 | < 3.70 | –
Cn1nc2ccc([N+](=O)[O-])c(Cn3nnc4ccccc43)c2n1 | < 3.70 | 4.23 | –
Nc1ncnc2c1ncn2C1OC2(CCSC2)C(O)C1O (centres undefined) | < 3.70 | 3.81 | –
S=C(c1c[nH]c2ccccc12)N1CCN(c2ccccc2)CC1 | < 3.70 | 3.80 | –
COc1ccc(/C=N/N2C(=O)c3c(N)c(C#N)c(-c4ccccc4)c(-c4ccccc4)c3C2=O)cc1 | < 4.00 | < 4.00 | –
